Where “and” joins values, the source holds several entries; their conditions need not be identical. Identical values can stand only once. Numbers after ± are expanded uncertainties.
Test: Boiling temperature at pressure P
Conditions: Liquid, Ebulliometric method (Recirculating still)

| Structure (SMILES) | Boiling temperature at pressure P (2.8 kPa) [°C] | Boiling temperature at pressure P (4.8 kPa) | Boiling temperature at pressure P (9.8 kPa) [°C] | Boiling temperature at pressure P (19.8 kPa) [°C] | Boiling temperature at pressure P (29.8 kPa) [°C] | Boiling temperature at pressure P (39.8 kPa) [°C] | Boiling temperature at pressure P (49.8 kPa) [°C] | Boiling temperature at pressure P (59.8 kPa) [°C] | Boiling temperature at pressure P (69.8 kPa) [°C] | Boiling temperature at pressure P (79.8 kPa) [°C] | Boiling temperature at pressure P (89.8 kPa) [°C] | other results |
| --- | --- | --- | --- | --- | --- | --- | --- | --- | --- | --- | --- | --- |
| OCCN1CCCC1 [1-(2-hydroxyethyl)pyrrolidine] | 87.5 ± 13 | 99.1 ± 8.8 °C | 115.7 ± 4.9 | 132.4 ± 3.2 | 144 ± 2.3 | 153.0 ± 1.8 | 159.5 ± 1.4 | 165.0 ± 1.2 | 169.5 ± 1 | 173.8 ± 0.8 | 176.7 ± 0.7 | – |
| CCN(CC)CCCO [3-diethylamino-1-propanol] | 87.1 ± 6 | – | – | 132.2 ± 3.5 | – | – | – | – | 169.1 ± 1 | – | – | Boiling temperature at pressure P (1.8 kPa): 80.8 ± 6.5 °C; Boiling temperature at pressure P (22.3 kPa): 136.1 ± 3.1 °C; Boiling temperature at pressure P (24.8 kPa): 139.0 ± 2 °C; Boiling temperature at pressure P (34.8 kPa): 147.1 ± 1.7 °C; Boiling temperature at pressure P (44.8 kPa): 154.2 ± 1.5 °C; Boiling temperature at pressure P (54.8 kPa): 160.2 ± 1.5 °C; Boiling temperature at pressure P (64.8 kPa): 167.0 ± 1.4 °C |
| CN(C)CCCO [3-dimethylamino-1-propanol] | – | 79.2 ± 7.2 °C and 79.8 ± 7 °C | 95.2 ± 5.9 | 112.7 ± 2.7 | 123.7 ± 2.2 | 132 ± 1.7 | 138.5 ± 1.4 | 144.1 ± 1.2 | 148.6 ± 1.1 | 153.2 ± 1 | 156.8 ± 0.9 | Boiling temperature at pressure P (14.8 kPa): 105.4 ± 4 °C; Boiling temperature at pressure P (99.8 kPa): 160.6 ± 0.9 °C |
| O [water] | – | – | 45.2 ± 3.3 | 60 ± 2.7 | 69.0 ± 1.8 | 75.8 ± 1.4 | 81.2 ± 1.2 | 86.0 ± 1 | 90.0 ± 0.9 | 93.6 ± 0.7 | – | Boiling temperature at pressure P (100.1 kPa): 99.5 ± 0.7 °C |
